Values of other authors as cited in patent US20100055044A1, “Ruthenium compounds and compositions” (priority 2008, published 2010).
Like-named read-outs stand apart in the source and are kept apart here.

Tested on: Alveolar adenocarcinoma, breast adenocarcinoma, uterine carcinosarcoma, and endometrial carcinoma cells
Settings: 8 days

In the case of `O=[O+][O-]` [ozone], the cell growth inhibition (0.3 ppm ozone in air) is given as 40%, the cell growth inhibition (0.5 ppm ozone in air) is given as 60% and the cell growth inhibition (0.8 ppm ozone in air, cancerous cells) is given as 90%.
